Reference: patent publication US20220249394A1 (priority 2019, published 2022)

Experiments:
[1] = test system: ScNeuro 2a (ScN2a) cells producing abnormal prion protein (PrP^Sc); type: cell-based, mouse; details: 24 hours culture with 0-40 mM HFIP, crystal violet staining, FIG. 1
[2] = molecular target: prion protein (PrP^C) in N2a cells (Mus musculus, UniProt P04925); type: cell-based; details: 6 mM HFIP for 24 hours, protease K 10 μg/ml 37° C. 30 minutes, Western blotting, FIG. 2 #1 to #4
[3] = test system: Neuro 2a (N2a) cells producing normal prion protein (PrP^C); type: cell-based, mouse; details: 24 hours culture with 0-40 mM HFIP, crystal violet staining, FIG. 1

Chain of prion protein (PrP^C) in N2a cells (P04925 23-230 limits assumed): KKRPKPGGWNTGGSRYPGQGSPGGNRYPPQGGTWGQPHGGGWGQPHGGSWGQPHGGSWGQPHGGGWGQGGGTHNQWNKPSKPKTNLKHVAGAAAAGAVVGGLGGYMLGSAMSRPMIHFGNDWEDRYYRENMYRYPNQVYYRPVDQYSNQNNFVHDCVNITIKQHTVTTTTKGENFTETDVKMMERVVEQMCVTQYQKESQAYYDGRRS

OC(C(F)(F)F)C(F)(F)F [HFIP, 1,1,1,3,3,3-hexafluoro-2-propanol]
upper concentration limit at which ScN2a cells can survive [1]: 20 mM
degradation of protein by protease K [2]: degraded by protease K with or without the addition of HFIP
upper concentration limit of HFIP at which N2a cells can survive [3]: 25 mM
